Experimental data: patent publication US9567326B2, “Pyrimidine compounds for the treatment of cancer” (THE UNIVERSITY OF NORTH CAROLINA AT CHAPEL HILL, priority 2012, dated 2017)

Molecular target: T1, Mer (Homo sapiens, UniProt Q12866)
T1 sequence (Q12866 21-999): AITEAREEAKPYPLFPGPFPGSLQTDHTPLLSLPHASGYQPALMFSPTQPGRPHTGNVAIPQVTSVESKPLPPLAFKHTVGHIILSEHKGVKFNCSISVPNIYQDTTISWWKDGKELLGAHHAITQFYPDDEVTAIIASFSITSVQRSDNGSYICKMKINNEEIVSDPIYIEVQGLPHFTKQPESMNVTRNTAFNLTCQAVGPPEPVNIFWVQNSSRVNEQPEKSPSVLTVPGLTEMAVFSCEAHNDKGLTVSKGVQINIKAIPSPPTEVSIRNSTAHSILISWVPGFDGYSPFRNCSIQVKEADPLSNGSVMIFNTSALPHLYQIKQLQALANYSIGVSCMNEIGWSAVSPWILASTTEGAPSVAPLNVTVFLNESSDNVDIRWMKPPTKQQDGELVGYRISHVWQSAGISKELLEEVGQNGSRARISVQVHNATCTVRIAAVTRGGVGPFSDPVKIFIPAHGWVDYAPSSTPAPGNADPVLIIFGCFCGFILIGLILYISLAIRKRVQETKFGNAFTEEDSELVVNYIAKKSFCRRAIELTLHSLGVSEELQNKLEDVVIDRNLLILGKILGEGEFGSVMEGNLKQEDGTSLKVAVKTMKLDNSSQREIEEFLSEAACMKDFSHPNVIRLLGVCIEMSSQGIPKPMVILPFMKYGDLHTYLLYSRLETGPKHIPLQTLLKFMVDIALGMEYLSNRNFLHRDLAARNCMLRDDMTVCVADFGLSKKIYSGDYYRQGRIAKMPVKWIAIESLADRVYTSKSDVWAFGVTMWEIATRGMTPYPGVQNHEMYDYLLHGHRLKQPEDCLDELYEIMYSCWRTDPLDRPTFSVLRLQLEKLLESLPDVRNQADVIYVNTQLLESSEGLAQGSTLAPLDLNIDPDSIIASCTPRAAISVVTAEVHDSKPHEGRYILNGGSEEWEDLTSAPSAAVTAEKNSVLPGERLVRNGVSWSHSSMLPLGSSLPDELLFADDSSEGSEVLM
Experiment: Mer IC50
Format: biochemical

Row | IC50 (Table 3 (General Procedure C compounds)) [nM] | IC50 (Table 7 (General Procedure G compounds)) [nM] | SMILES
1 | < 10 | – | CCCCNc1ncc(-c2ccc(C(=O)NC3CCN(C(=O)OC(C)(C)C)CC3)cn2)c(NC2CCC(O)CC2)n1 (centres unmarked) [UNC1898A]
2 | – | < 10 | CCCCNc1ncc(-c2cncc(N)n2)c(N[C@H]2CC[C@H](O)CC2)n1 [UNC3118A]
